Data published in patent publication US12285408B2, “Methods and compositions for the treatment of snake bite” (priority 2021, dated 2025).
“Also recorded” adds a separate entry of the source.

Columns and labels:
[1] = system: metalloproteinase activity of C. atrox, C. adamanteus and C. horridus venom; assay: In vitro snake venom metalloproteinase assay, North American rattlesnake venoms; assay type: biochemical, Crotalus atrox, Crotalus adamanteus, Crotalus horridus; settings: 25 μM drug, 1 μg venom, range across the three rattlesnake venoms
Source text: FIG. 6. […] Error bars represent standard deviation.
The remaining assay protocol with respects to fluorogenic substrate preparation, plate-read settings and data processing was the same as described above.
These species were selected for their clinical importance in the USA, namely: 1) Crotalus atrox (Western diamondback), which is found across the southwest USA and into Mexico and is thought to be the most common cause of snakebite envenoming in USA, 2) Crotalus horridus (Timber rattlesnake), which is found across Eastern and central USA, and is categorised as a Group I medically important snake by the World Health Organization. Furthermore, this species is not included in the immunising mixture of the current FDA-approved CroFab antivenom. 3) Crotalus adamanteus (Eastern diamondback), which is another Group I medically important snake, found in the South-East USA.

Echis ocellatus venom = assay: Murine preincubation (co-incubation) model of venom lethality, intravenous, with TAT ELISA; assay type: in vivo, CD-1 mice; settings: 45 μg venom (2.5×LD50) preincubated 30 min at 37° C. with 60 μg of each drug, i.v., 6 h monitoring, n=5
Method: The intravenous median lethal dose (venom LD50) for E. ocellatus (Nigeria) of 17.85 μg per mouse was previously determined. Mice were challenged with 45 μg of E. ocellatus venom (2.5×the intravenous LD50 dose) in a refined version of the World Health Organization-recommended antivenom efficacy experiments. Groups of five male 18-22 g CD-1 mice (Charles River, UK) received experimental doses that consisted of either (a) venom only (2.5×LD50 dose), (b) venom and drug (60 μg) or (c) drug only. All experimental doses were prepared to a volume of 200 μl in PBS and incubated at 37° C. for 30 mins prior to their intravenous injection via the tail vein. Animals were monitored for 6 hours and euthanized upon observation of humane endpoints (seizure, pulmonary distress, paralysis, hemorrhage). Deaths, time of death, and survivors were recorded; where “deaths/time of death” represents the implementation of euthanasia based on the defined humane endpoints.
(§1) The same murine preincubation model was used to assess the efficacy of distinct toxin family inhibiting drugs in comparison with a drug combination. […] All experimental doses were prepared to a volume of 200 μl in PBS and incubated at 37° C. for 30 min prior to their intravenous injection via the tail vein. Animals were monitored for 6 h, and euthanized via rising concentrations of CO2 upon observation of previously defined humane end points that are predicators of lethality (e.g., seizure, pulmonary distress, paralysis, hemorrhage). Deaths, time of death, and survivors were recorded; where death/time of death represents the implementation of euthanasia based on defined humane end points.
Strong drug hits, those defined as inhibiting >80% of the venom activity in the previously described in vitro metalloproteinase assay (FIG. 1), were next progressed into murine preclinical efficacy studies, to assess their ability to prevent venom-induced lethality in vivo. We used an established in vivo model of envenoming to test the efficacy of the seven snake venom metalloproteinase toxin inhibitors identified. This model consisted of the preincubation of the test drug with venom, followed by intravenous injection of the mixture into groups of five male CD-1 mice (18-20 g) via the tail vein followed by 6 hour monitoring, and is based on principles laid out in the gold standard method of preclinical efficacy recommended by the World Health Organization.
We used an established in vivo model of envenoming^41,42 to test the efficacy of small molecule toxin inhibitors. […]

A. contortrix venom = assay: Murine preincubation model of venom lethality, North American pit viper venom; assay type: in vivo, CD-1 mice; settings: 2.5×LD50 A. contortrix venom preincubated with 60 μg of each drug, i.v., 6 h, n=5
Method: as §1, with “Thereafter, the” for “The”, “animal” for “preincubation”, “explore” for “assess”, “the same snake venom metalloproteinase and phospholipase A2” for “distinct toxin family”, “as solo and combination treatments against North American pit viper venoms. The intravenous median lethal dose (venom LD50) for C. atrox, C. scutulatus, S. miliariius and A. contortrix venoms was previously determined (3.79 μg, 0.17 μg, 4.87 μg and 4.99 μg per mouse, respectively).” for “in comparison with a drug combination.”, “As described above, all” for “All”
(§2) These snake species were selected for their taxonomic diversity and clinical importance in the USA, namely: 1) Crotalus atrox (Western diamondback), which is found across the southwest USA and into Mexico and is thought to be the most common cause of snakebite envenoming in USA, 2) Crotalus scutulatus (Mojave rattlesnake), which is also found across the southwest USA and into Mexico, 3) Sistrurus miliarius (pygmy rattlesnake), which is found in the South-East USA, and 4) Agkistrodon contortrix (Eastern copperhead), which is found in central and eastern USA. […] The drug treatments consisted of: DMPS, marimastat, or varespladib as solo drug treatments, or a DMPS and varespladib combination, or a marimastat and varespladib combination.

C. atrox venom = assay: as above; assay type: in vivo, CD-1 mice; settings: 2.5×LD50 C. atrox venom preincubated with 60 μg of each drug, i.v., 6 h, n=5
Method: as §1, with “Thereafter, the” for “The”, “animal” for “preincubation”, “explore” for “assess”, “the same snake venom metalloproteinase and phospholipase A2” for “distinct toxin family”, “as solo and combination treatments against North American pit viper venoms. The intravenous median lethal dose (venom LD50) for C. atrox, C. scutulatus, S. miliariius and A. contortrix venoms was previously determined (3.79 μg, 0.17 μg, 4.87 μg and 4.99 μg per mouse, respectively).” for “in comparison with a drug combination.”, “As described above, all” for “All”
as §2

C. scutulatus venom = assay: as above; assay type: in vivo, CD-1 mice; settings: 2.5×LD50 C. scutulatus venom preincubated with 60 μg of each drug, i.v., 6 h, n=5
Method: as §1, with “Thereafter, the” for “The”, “animal” for “preincubation”, “explore” for “assess”, “the same snake venom metalloproteinase and phospholipase A2” for “distinct toxin family”, “as solo and combination treatments against North American pit viper venoms. The intravenous median lethal dose (venom LD50) for C. atrox, C. scutulatus, S. miliariius and A. contortrix venoms was previously determined (3.79 μg, 0.17 μg, 4.87 μg and 4.99 μg per mouse, respectively).” for “in comparison with a drug combination.”, “As described above, all” for “All”
as §2

S. miliarius venom = assay: as above; assay type: in vivo, CD-1 mice; settings: 2.5×LD50 S. miliarius venom preincubated with 60 μg of each drug, i.v., 6 h, n=5
Method: as §1, with “Thereafter, the” for “The”, “animal” for “preincubation”, “explore” for “assess”, “the same snake venom metalloproteinase and phospholipase A2” for “distinct toxin family”, “as solo and combination treatments against North American pit viper venoms. The intravenous median lethal dose (venom LD50) for C. atrox, C. scutulatus, S. miliariius and A. contortrix venoms was previously determined (3.79 μg, 0.17 μg, 4.87 μg and 4.99 μg per mouse, respectively).” for “in comparison with a drug combination.”, “As described above, all” for “All”
as §2

Compound	inhibition of metalloproteinase activity [1]	survival / protection against venom-induced lethality (Echis ocellatus venom)	protection against venom lethality (A. contortrix venom)	protection against venom lethality (C. atrox venom)	protection against venom lethality (C. scutulatus venom)	protection against venom lethality (S. miliarius venom)
O=S(=O)(O)CC(S)CS (stereo not shown) [DMPS, 2,3-dimercapto-1-propanesulfonic acid]	88.6-97.8%	all animals surviving; also recorded: complete protection	Neither drug provided protection	Neither drug provided protection	some limited protection	
CNC(=O)[C@@H](NC(=O)[C@H](CC(C)C)[C@H](O)C(=O)NO)C(C)(C)C [marimastat]	90.9-99.1%	only one death; also recorded: remaining four survived	Neither drug provided protection	Neither drug provided protection	some limited protection	some protection
CCc1c(C(=O)C(N)=O)c2c(OCC(=O)O)cccc2n1Cc1ccccc1 [varespladib]		failed to prevent lethality over the full experimental time course	survived for longer periods of time than the venom only controls	survived for longer periods of time than the venom only controls	survive the duration of the experiment	survived for longer periods of time than the venom only controls
